Measured values from patent US5883074A, “Potentiators of antibacterial agents” (priority 1995, dated 1999).
Like-named read-outs stand apart in the source and are kept apart here.

Columns and labels:
[1] = tested on: E. faecalis VanA strain; assay: Vancomycin potentiation screens VPS-20 and VPS-D-ala; format: cell-based, Enterococcus faecalis; conditions: 10 ug/ml test compound; for intrinsic activity against the control cells: no vancomycin; for vancomycin potentiation screen result: VPS-20 and/or VPS-D-ala
Description: (§1) In the VPS-20 protocol, vancomycin is used at 20 ug/ml, test compounds are used at 10 ug/ml (this is not critical, a range could be used as well). The growth medium is Brain Heart Infusion broth however, any of a variety of media which will support growth of the specific bacterial strain can be used. The VPS-D-Ala screen uses 8 ug/ml of vancomycin and 50 mM D-alanine. This amino acid is added to feed the bacteria excess alanine, which allows the bacteria to incorporate the alanine in some cases instead of incorporating the (resistance causing) D-lactate in the pentapeptide termini of the cell wall precursor. The presence of this D-alanine supplement thus makes the assay less stringent.
(§2) Inoculate E. faecalis VanA strain in BHI broth (pick a few colonies into 3 ml BHI with 2.56 ug/ml vancomycin and grow O/N at 35° C. in a shaker rotating at 225 rpm.
(§3) Dilute the O/N culture 1:50 in BHI with 2.56 ug/ml vancomycin (0.5 ml±24.5 ml BHI) in a 125-ml flask, put back in the 35° C. shaker until the cells grow to early log phase (OD600 about 0.2, takes approximately 2 hrs). Make a 1:800 dilution of the log phase culture with BHI broth. 50 ul of these diluted cells will be used as the inoculum in the assay as described below. Add the inoculum after the other reagents.
(§4) Meanwhile, test the inoculum concentration and purity: Make 3 serial 10-fold dilutions of the inoculum in 0.2 ml BHI broth. Plate 100 ul on TSA agar plates (trypticase soy agar), incubate at 35° C. O/N, count the colonies to estimate the CFU/ml in the inoculum (it should be 10^4 -10^5 CFU/ml).
(§5) Make vancomycin stock at 50 mg/ml in ddH2 O. Filter sterilize with 0.2 um filter, and keep in the freezer. On the day of the assay, dilute vancomycin to 50 ug/ml (for VPS-20) or 54 ug/ml (for VPS-D-ala) in BHI broth.
Prepare D-alanine (Sigma) at 800 mM in ddH2O. Filter sterilize with 0.2 um filter.
(§6) The test compounds are from 0.1 mg/ml plates in 10% DMSO, 90% 50 mM HEPES, pH 7.3. Thaw at room temperature.
1. Take 40 ul 50 ug/ml vancomycin in BHI to each well of the assay plate (Final volume will be 100 ul, making vancomycin concentration 20 ug/ml)
2. For each assay plate, prepare a toxicity control plate; instead of pipetting 40 ul of the vancomycin, use 40 ul of BHI broth in each well of the assay plate.
3. Dilute 800 mM D-alanine to 200 mM in BHI broth, take 25 ul of the 200 mM D-alanine to both the assay plate and the toxic control plate.
4. Take 15 ul of 54 ug/ml vancomycin in BHI to each well of the assay plate (Final volume will be 100 ul, making vancomycin concentration 8 ug/ml)
5. For each assay plate, prepare a toxicity control plate; instead of pipetting 15 ul of the vancomycin, use 15 ul of BHI broth in each well of the assay plate.
6. Take 10 ul/well of the test compounds to the assay plates and the toxicity control plates. Do this in perfect register in the microtiter plates (change tips), and work using sterile technique (Final concentration will be 10 ug/ml test compounds, 1% DMSO). This must be done with separate tips, in perfect register.
7. Add 10 ul of 10% DMSO, 90% 50 mM HEPES, pH 7.3 in columns 1 and 12 in each plates.
8. Inoculate all wells in columns 2 to 11 with 50 ul 1/800 diluted log phase culture (prepared as indicated above). Use 50 ul sterile BHI instead of inoculum for the negative growth controls in well A-D in columns 1 and well E-H in columns 12. Add 50 ul of inoculum to Wells E-H in columns 1 and wells A-D in columns 12 for the positive growth controls.
(§7) 11. […] Remove mylar lids and check the cell density (A600) in 21-24 hours using a microtiter plate reader. The plates will need to be agitated carefully to resuspend the cells before reading.

[2] = tested on: E. faecalis VanA strain; assay: Vancomycin potentiation screen VPS-20; format: cell-based; conditions: Enterococcus faecalis, 10 ug/ml test compound
Description: as §1, §2, §3, §4, §5, §6
1. […]
as §7

[3] = tested on: Enterococcus faecalis VanB; assay: Checkerboard assay / dose range study with vancomycin; format: cell-based
Source text: (§8) FIG. 9a provides the results of checkerboard assays showing the MIC reduction for vancomycin in the presence of a range of concentrations of brazilin against two Enterococcus faecalis strains, one VanA and the other VanB. […] Similarly, FIG. 9b provides the results of checkerboard assays showing the MIC reduction for vancomycin in the presence of a range of concentrations of 6-ethyl-7-[1-oxo-3-(1-pyrrolidino)]propyl-1,2,3,4-tetrahydro-1,1,4,4-tetramethylnaphthalene (EOPPTTN).
(§9) Two of the three compounds (brazilin and 6-ethyl-7-[oxo-3-(1-pyrrolidino)]propyl-1,2,3,4-tetrahydro-1,1,4,4-tetramethylnaphthalene) have been examined for synergy with vancomycin. […] Two examples of reasons for alterations are for further optimization, and for modification for use with other bacterial strains or species.

[4] = tested on: Enterococcus faecalis VanA; assay: as above; format: cell-based
Source text: as §8, §9

[5] = tested on: MRSA; assay: Potentiation screening assay: methicillin MIC reduction in MRSA; format: cell-based, Staphylococcus aureus; conditions: Staphylococcus aureus; MRSA, methicillin alone
Description: After regrowth at 35° C. to an OD600 of 0.2-0.4 (1-2 hrs.), the cells are diluted 1/1000 in MHB. […] The plate is placed in a humidified 35° C. incubator for 5-24 hours, and cell growth or inhibition is read as turbidity (OD600). Two positive and one negative controls for growth are cells grown MHB, cells grown in MHB plus 20 μg/ml methicillin alone (without test compound), and uninoculated MHB respectively.
Compounds which meet the first two criteria for follow-up are evaluated in a standard microdilution assessment of the MIC with methicillin for MRSA. (see Lorian, Antibiotics in Laboratory Medicine, 3rd ed., pp. 72-75 (1991).) In order to be carried further, the MIC of methicillin preferably is reduced in the presence of the potentiator to at most twice the MIC of a susceptible strain for methicillin.
MICs for the compounds were determined in the presence of 0, 5, and 10 μg/ml of each compound. MRSA cells were grown in the presence of 0, 5, and 10 μg/ml test compound and concentrations of methicillin obtained from serial two-fold dilutions starting at 1024 μg/ml to 0.002 μg/ml (This range can be extended or refined as appropriate.) as follows: A fresh inoculum of MRSA cells was grown at 35° C. in Mueller-Hinton Broth (MHB) overnight and then diluted 1/50 in the same medium. After regrowth at 35° C. to an OD600 of 0.2-0.4 (1-2 hrs.), the cells were diluted 1/1000 in MHB. […] The plate was placed in a humidified 35° C. incubator for 24 hours, and cell growth or inhibition was read as turbidity (OD600).

[6] = tested on: MRSA Col cells; assay: Time-kill curve with methicillin; format: cell-based, Staphylococcus aureus; conditions: methicillin only; at 24 hours
Description: FIG. 3a is a graph of the number of viable MRSA Col cells/ml versus growth time in hours as determined by the method of Example 4. The graph presents the time kill curve for the first potentiating compound from FIG. 1 at 10 μg/ml with methicillin at 20 μg/ml, and curves for controls (drug-free, methicillin only, and potentiator only). Viable cell counts for all controls were greater than 5×10^8 cells/ml at 24 hours, while the viable cell count for methicillin plus potentiator was approximately 5×10^3 cells/ml after 24 hours.
A standard time-kill method (see Eliopolous & Moellering, Ch. 13 in Antibiotics in Laboratory Medicine, 3rd ed., Lorian ed., at pp. 441-444) is used to characterize whether the potentiator-drug combination is bacteriostatic or bactericidal. As controls, normal growth of the pathogen (without drug or potentiator) and the effects of the drug alone and the potentiator alone are assessed using the same inoculum culture as is used in the combination time-kill test. Either bacteriostatic or bactericidal effect should be confirmed for the potentiators to progress to further testing.

[7] = tested on: Enterococcus faecalis VanA; assay: Vancomycin MIC of the test strain; checkerboard with D-alanine; format: cell-based
Description: In addition, in the bacterial strain used in the assays below, vancomycin induces the resistance mechanism. […] However, it is likely that the VPS-8 protocol (or one with a similar glycopeptide concentration)will be useful in conjunction with bacterial strains in which the glycopeptide resistance is not induced by a glycopeptide, such as strains in which the resistance is constitutively expressed.
9. […] 25 ul of the 800 mM D-alanine, 15 ul of 134 ug/ml vancomycin, 10 ul of 10% DMSO, 90% 50 mM HEPES, pH 7.3, 50 ul of BHI broth (negative control) or the inoculum (positive control).

[8] = no vancomycin, read-out: percent intrinsic inhibition in the VPS-20 control (without vancomycin)

Question: For `O=C(NCc1ccccc1)c1ccccc1S` [N-benzyl thiosalicylamide], which “intrinsic activity against the control cells” value [1] is on record?
Answer: little intrinsic activity

Question: And the “vancomycin potentiation screen result” value [1]?
Answer: very potent inhibitor in the assay

Question: And the inhibition at 10 µg/mL ([2]; 20 ug/ml vancomycin, read-out: percent growth inhibition in the VPS-20 assay (with vancomycin))?
Answer: 88%

Question: And the inhibition at 10 µg/mL [2, 8]?
Answer: 4%

Question: Which “intrinsic activity against the control cells” value [1] does the source give for `Oc1ccc2c(c1)OC[C@]1(O)Cc3cc(O)c(O)cc3[C@H]21` [brazilin] here?
Answer: some intrinsic activity against the control cells

Question: And the “vancomycin potentiation screen result” value [1]?
Answer: positive, but less than N-benzyl thiosalicylamide

Question: What about the inhibition at 10 µg/mL [2, 8] of the same molecule?
Answer: 32%

Question: What about the “vancomycin MIC reduction in checkerboard assay” value ([3]; compound 0-20 μg/ml, VanB) of the same molecule?
Answer: significant reduction in the vancomycin MIC

Question: What about the synergy with vancomycin ([3]; dose range study, VanB phenotype) of the same molecule?
Answer: synergy

Question: And the “vancomycin MIC reduction in checkerboard assay” value ([4]; compound 0-20 μg/ml, VanA)?
Answer: significant reduction in the vancomycin MIC

Question: What about the synergy with vancomycin ([4]; dose range study, VanA phenotype) of the same molecule?
Answer: synergy

Question: How did the MIC [5] turn out when `COc1cccc(OC)c1C(=O)N[C@@H]1C(=O)N2[C@@H]1SC(C)(C)[C@@H]2C(=O)O` [methicillin, reference compound] was run?
Answer: > 100 µg/mL

Question: What about the “viable cell count, methicillin only (control)” value [6] of the same molecule?
Answer: greater than 5×10^8 cells/ml

Question: What does the source list for `CN[C@H](CC(C)C)C(=O)N[C@H]1C(=O)N[C@@H](CC(N)=O)C(=O)N[C@H]2C(=O)N[C@H]3C(=O)N[C@H](C(=O)N[C@H](C(=O)O)c4cc(O)cc(O)c4-c4cc3ccc4O)[C@H](O)c3ccc(c(Cl)c3)Oc3cc2cc(c3O[C@@H]2O[C@H](CO)[C@@H](O)[C@H](O)[C@H]2O[C@H]2C[C@](C)(N)[C@H](O)[C@H](C)O2)Oc2ccc(cc2Cl)[C@H]1O` [vancomycin]?
Answer: MIC of vancomycin in the presence of D-alanine ([7]; 200 mM D-alanine): 16 µg/mL; MIC ([7]; Enterococcus faecalis, read-out: MIC of vancomycin): 512 µg/mL
